Reference: patent US7338958B2, “Sulfoximine-substituted pyrimidines as CDK-and/or VEGF inhibitors, their production and use as pharmaceutical agents” (Schering AG, priority 2003, dated 2008)

Legend:
[1] = test system: NCI-H460, human non-small-cell lung cancer cells; assay: Proliferation assay, H460; format: cell-based; conditions: NCI-H460, 96 h, 4 days incubation, crystal violet
Source text: (§1) Cultivated human tumor cells (MCF7, hormone-independent human breast cancer cells, related to ATCC HTB22; NCI-H460, human non-small-cell lung cancer cells, ATCC HTB-177, HCT 116, human colon cancer cells, ATCC CCL-247; DU 145, hormone-independent human prostate cancer cells, ATCC HTB-81; MaTu-MDR, hormone-independent, multiple pharmaceutical agent-resistant human breast cancer cells, EPO-GmbH, Berlin) were flattened out at a density of about 5000 cells/measuring point, depending on the growth rate of the respective cells, in a 96-well multititer plate in 200 μl of the corresponding growth medium. After 24 hours, the cells of one plate (zero-point plate) were colored with crystal violet (see below), while the medium of the other plates was replaced by fresh culture medium (200 μl), to which the test substances were added in various concentrations (0 μm, as well as in the range of 0.01-30 μm; the final concentration of the solvent dimethyl sulfoxide was 0.5%). The cells were incubated for 4 days in the presence of test substances. The cell proliferation was determined by coloring the cells with crystal violet: the cells were fixed by adding 20 μl/measuring point of an 11% glutaric aldehyde solution for 15 minutes at room temperature. After three washing cycles of the fixed cells with water, the plates were dried at room temperature. The cells were colored by adding 100 μl/measuring point of a 0.1% crystal violet solution (the pH was set at 3 by adding acetic acid). After three washing cycles of the colored cells with water, the plates were dried at room temperature. The dye was dissolved by adding 100 μl/measuring point of a 10% acetic acid solution. The extinction was determined by photometry at a wavelength of 595 nm. The change of cell growth, in percent, was calculated by normalization of the measured values to the extinction values of the zero-point plate (=0%) and the extinction of the untreated (0 μm) cells (=100%).

CDK1/CycB = biological target: T1, CDK1/CycB (Homo sapiens, UniProt P06493); assay: CDK1/CycB Kinase Assay; format: biochemical; conditions: histone IIIS substrate, 33P-ATP, 15 minutes at 22° C.
T1 construct: GST; purchased ProQinase GmbH, Freiburg; host or cells: baculovirus-infected insect cells (Sf9)
Procedure: Recombinant CDK1- and CycB-GST-fusion proteins, purified from baculovirus-infected insect cells (Sf9), were purchased from ProQinase GmbH, Freiburg. Histone IIIS, used as a kinase substrate, is available commercially from the Sigma Company.
The reaction was stopped by adding EDTA solution (250 mmol, pH 8.0, 14 μl/measuring point).
(§2) From each reaction batch, 10 μl was applied to P30 filter strips (Wallac Company), and non-incorporated 33P-ATP was removed by subjecting the filter strips to three washing cycles for 10 minutes each in 0.5% phosphoric acid. After the filter strips were dried for one hour at 70° C., the filter strips were covered with scintillator strips (MeltiLex™ A, Wallac Company) and baked for one hour at 90° C. The amount of incorporated 33P (substrate phosphorylation) was determined by scintillation measurement in a gamma-radiation measuring device (Wallac).

MaTu-ADR = assay: Proliferation assay, MaTu-ADR; format: cell-based; conditions: Homo sapiens, 96 h, MaTu-ADR cells, 4 days incubation, crystal violet
Source text: as §1

[2] = test system: MCF7, hormone-independent human breast cancer cells; assay: Proliferation assay, MCF7; format: cell-based; conditions: MCF7, 96 h, 4 days incubation, crystal violet
Source text: as §1

[3] = biological target: T2, VEGF receptor tyrosine kinase-2 (Homo sapiens, UniProt P35968); assay: VEGF Receptor-2 Kinase Assay; format: biochemical; conditions: poly-(Glu4Tyr) substrate, 33P-ATP, 10 minutes at 22° C.; read-out: VEGF-R2 IC50
T2 construct: GST; made in house; host or cells: baculovirus-infected insect cells (Sf9)
Procedure: VEGF Receptor-2 Kinase Assay
Recombinant VEGF receptor tyrosine kinase-2 was purified as a GST fusion protein from baculovirus-infected insect cells (Sf9). Poly-(Glu4Tyr), which was used as a kinase substrate, was purchased by the Sigma Company.
VEGF receptor tyrosine kinase (90 ng/measuring point) was incubated for 10 minutes at 22° C. in the presence of various concentrations of test substances (0 μm, as well as within the range of 0.001-30 μm) in 30 μl of assay buffer [40 mmol of Tris/HCl, […], 10 mmol of MgCl2, 1 mmol of MnCl2, 3 μmol of Na ortho-vanadate, 1.0 mmol of dithiothreitol, 8 μmol of adenosine trisphosphate (ATP), 27 μg/measuring point of poly-(Glu4Tyr), 0.2 μCi/measuring point of 33P-gamma ATP, 1% dimethyl sulfoxide]. The reaction was stopped by adding EDTA solution (250 mmol, pH 7.0, 10 μl/measuring point).
as §2

CDK2/CycE = biological target: T3, CDK2/CycE (Homo sapiens, UniProt P24941); assay: CDK2/CycE Kinase Assay; format: biochemical; conditions: histone IIIS substrate, 33P-ATP, 15 minutes at 22° C.
T3 construct: GST; purchased ProQinase GmbH, Freiburg; host or cells: baculovirus-infected insect cells (Sf9)
Procedure: Recombinant CDK2- and CycE-GST-fusion proteins, purified from baculovirus-infected insect cells (Sf9), were purchased by ProQinase GmbH, Freiburg. Histone IIIs, which was used as a kinase substrate, was purchased by the Sigma Company.
CDK2/CycE (50 ng/measuring point) was incubated for 15 minutes at 22° C. in the presence of various concentrations of test substances (0 μm, as well as within the range of 0.01-100 μm) in assay buffer [50 mmol of tris/HCl, pH 8.0, 10 mmol of MgCl2, 0.1 mmol of Na ortho-vanadate, 1.0 mmol of dithiothreitol, 0.5 μm of adenosine triphosphate (ATP), 10 μg/measuring point of histone IIIS, 0.2 μCi/measuring point of ^33P-gamma ATP, 0.05% NP40, 12.5% dimethyl sulfoxide]. The reaction was stopped by adding EDTA solution (250 mmol, pH 8.0, 14 μl/measuring point).
as §2, with “^33P-ATP” for “33P-ATP”, “^33P” for “33P”

[4] = test system: DU 145, hormone-independent human prostate cancer cells; assay: Proliferation assay, DU145; format: cell-based; conditions: DU-145, 96 h, 4 days incubation, crystal violet
Source text: as §1

T2 sequence (P35968 20-1356): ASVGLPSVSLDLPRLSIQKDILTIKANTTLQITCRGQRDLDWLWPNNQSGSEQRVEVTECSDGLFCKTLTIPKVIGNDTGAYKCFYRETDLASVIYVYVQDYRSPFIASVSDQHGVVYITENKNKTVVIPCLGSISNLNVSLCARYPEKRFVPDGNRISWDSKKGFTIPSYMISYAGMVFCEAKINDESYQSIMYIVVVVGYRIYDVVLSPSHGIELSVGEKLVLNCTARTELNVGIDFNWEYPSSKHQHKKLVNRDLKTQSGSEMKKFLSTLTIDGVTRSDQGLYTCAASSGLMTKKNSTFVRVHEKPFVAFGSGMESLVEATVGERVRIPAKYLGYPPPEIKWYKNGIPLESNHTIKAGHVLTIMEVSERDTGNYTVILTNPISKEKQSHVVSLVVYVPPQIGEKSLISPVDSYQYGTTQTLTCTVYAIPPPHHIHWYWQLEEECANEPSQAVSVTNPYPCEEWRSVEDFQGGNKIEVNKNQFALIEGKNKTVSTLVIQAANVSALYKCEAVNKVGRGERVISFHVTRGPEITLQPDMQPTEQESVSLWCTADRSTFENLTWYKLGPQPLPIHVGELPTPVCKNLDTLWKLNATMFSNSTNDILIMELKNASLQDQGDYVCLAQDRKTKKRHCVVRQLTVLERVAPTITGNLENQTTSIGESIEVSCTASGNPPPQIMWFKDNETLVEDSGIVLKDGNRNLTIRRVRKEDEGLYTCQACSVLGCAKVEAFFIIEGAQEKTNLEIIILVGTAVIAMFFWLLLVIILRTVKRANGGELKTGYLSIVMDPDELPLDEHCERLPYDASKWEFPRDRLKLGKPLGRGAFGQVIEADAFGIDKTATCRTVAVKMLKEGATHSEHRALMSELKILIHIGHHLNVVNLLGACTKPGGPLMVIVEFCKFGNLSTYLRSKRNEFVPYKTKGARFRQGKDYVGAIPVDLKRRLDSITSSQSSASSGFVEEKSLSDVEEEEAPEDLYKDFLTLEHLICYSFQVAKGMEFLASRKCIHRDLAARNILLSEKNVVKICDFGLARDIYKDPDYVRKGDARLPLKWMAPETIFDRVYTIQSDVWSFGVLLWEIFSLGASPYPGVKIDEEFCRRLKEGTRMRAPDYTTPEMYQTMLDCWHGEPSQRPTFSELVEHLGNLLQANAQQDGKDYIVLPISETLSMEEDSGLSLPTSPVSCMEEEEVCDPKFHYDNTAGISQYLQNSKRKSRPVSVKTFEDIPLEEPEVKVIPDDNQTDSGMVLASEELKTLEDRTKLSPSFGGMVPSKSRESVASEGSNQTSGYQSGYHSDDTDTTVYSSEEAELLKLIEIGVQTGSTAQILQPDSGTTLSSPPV
T1 sequence (P06493 whole entry): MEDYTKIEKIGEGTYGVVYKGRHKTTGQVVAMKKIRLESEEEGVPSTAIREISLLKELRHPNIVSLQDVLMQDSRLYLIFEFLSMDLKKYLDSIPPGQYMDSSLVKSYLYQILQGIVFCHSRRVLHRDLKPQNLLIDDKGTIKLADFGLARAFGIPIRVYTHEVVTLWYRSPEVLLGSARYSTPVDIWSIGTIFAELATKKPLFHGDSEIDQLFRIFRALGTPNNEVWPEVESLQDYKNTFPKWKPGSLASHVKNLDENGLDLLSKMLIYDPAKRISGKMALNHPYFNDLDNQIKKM
T1 sequence (P14635 whole entry partner): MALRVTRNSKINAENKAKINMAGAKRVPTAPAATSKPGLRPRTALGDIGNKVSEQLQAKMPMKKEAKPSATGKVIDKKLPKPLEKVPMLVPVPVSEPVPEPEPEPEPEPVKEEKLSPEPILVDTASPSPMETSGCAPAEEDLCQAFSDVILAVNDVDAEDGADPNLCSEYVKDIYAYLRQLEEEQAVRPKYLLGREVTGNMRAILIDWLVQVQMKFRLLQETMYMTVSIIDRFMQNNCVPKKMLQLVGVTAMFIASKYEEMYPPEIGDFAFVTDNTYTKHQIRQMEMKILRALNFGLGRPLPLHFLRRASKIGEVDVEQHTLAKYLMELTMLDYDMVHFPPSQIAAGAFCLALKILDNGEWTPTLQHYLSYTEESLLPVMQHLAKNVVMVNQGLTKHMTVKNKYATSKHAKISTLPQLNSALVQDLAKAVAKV

IC50 [1]	IC50 (CDK1/CycB)	IC50 [2]	IC50 [3]	IC50 (CDK2/CycE)	IC50 [4]	Structure (SMILES)	IC50 (MaTu-ADR)
400 nM	160 nM	200 nM	160 nM	49 nM	300 nM	C[C@@H](Nc1nc(Nc2ccc(S(=O)(CCO)=NS(=O)(=O)CC[Si](C)(C)C)cc2)ncc1Br)C(C)(C)O (mixture of isomers) [Example 1.12, (RS)-S-[4-({5-bromo-4-[(R)-(2-hydroxy-1,2-dimethylpropyl)amino]pyrimidin-2-yl}amino)phenyl]-S-(2-hydroxyethyl)-N-[2-(trimethylsilyl)ethylsulfonyl]sulfoximide]	2800 nM
300 nM	49 nM	300 nM		19 nM	300 nM	CCOC(=O)N=S(=O)(CC)c1ccc(Nc2ncc(Br)c(O[C@H](C)[C@@H](C)O)n2)cc1 (mixture of isomers) [Example 1.39, (RS)-S-[4-({5-bromo-4-[(1R,2R)-2-hydroxy-1-methylpropoxy]pyrimidin-2-yl}amino)phenyl]-N-(ethoxycarbonyl)-S-ethyl sulfoximide]	900 nM
40 nM	4 nM	60 nM	39 nM	4 nM	40 nM	Cc1cc(Nc2ncc(Br)c(N[C@H](C)[C@@H](C)O)n2)ccc1S(C)(=N)=O (mixture of isomers) [Example 1.60, (RS)-S-[4-({5-bromo-4-[(1R,2R)-(2-hydroxy-1-methylpropyl)amino]pyrimidin-2-yl}amino)-2-methylphenyl]-S-methyl sulfoximide]	40 nM
< 100 nM	14 nM	140 nM		8 nM	< 100 nM	C[C@@H](Nc1nc(Nc2ccc(S(=N)(=O)C3CC3)cc2)ncc1Br)C(C)(C)O (mixture of isomers) [Example 1.6, (RS)-S-[4-({5-bromo-4-[(R)-(2-hydroxy-1,2-dimethylpropyl)amino]pyrimidin-2-yl}amino)phenyl]-S-cyclopropylsulfoximide]	< 100 nM
120 nM	14 nM			7 nM	200 nM	CN=S(C)(=O)c1ccc(Nc2ncc(Br)c(N[C@H](C)[C@@H](C)O)n2)cc1 (mixture of isomers) [Example 1.28, (RS)-S-[4-({5-bromo-4-[(1R,2R)-(2-hydroxy-1-methylpropyl)amino]pyrimidin-2-yl}amino)phenyl]-N,S-dimethyl-sulfoximide]	200 nM
< 100 nM	44 nM	100 nM		25 nM	< 100 nM	C[C@@H](Nc1nc(Nc2ccc(S(=N)(=O)C3CCCC3)cc2)ncc1Br)C(C)(C)O (mixture of isomers) [Example 1.11, (RS)-S-[4-({5-bromo-4-[(R)-(2-hydroxy-1,2-dimethylpropyl)amino]pyrimidin-2-yl}amino)phenyl]-S-cyclopentylsulfoximide]	100 nM
< 100 nM		130 nM	75 nM	6 nM	100 nM	COc1cc(Nc2ncc(Br)c(N[C@H](C)C(C)(C)O)n2)ccc1S(C)(=N)=O (mixture of isomers) [Example 1.23, (RS)-S-[4-({5-bromo-4-[(R)-(2-hydroxy-1,2-dimethylpropyl)amino]pyrimidin-2-yl}amino)-2-methoxyphenyl]-S-methyl sulfoximide]	< 100 nM
20 nM	22 nM	80 nM		18 nM	20 nM	CCC(Sc1nc(Nc2ccc(S(C)(=N)=O)cc2)ncc1Br)C(C)O (racemic) [Example 3.6, (RS)-S-[4-({5-bromo-4-[(RS,RS)-(1-ethyl-2-hydroxypropyl)sulfanyl]pyrimidin-2-yl}amino)phenyl]-S-methyl sulfoximide]	20 nM
